Source: patent publication US12320799B2, “Methods of measuring signaling pathway activity for selection of therapeutic agents” (Celcuity Inc., priority 2017, dated 2025)

Columns and labels:
Format in all cases: cell-based, human
IGFR signaling pathway = assay: CELx multiple pathway test, impedance biosensor cell adhesion, IGF/Linsitinib pair; conditions: activator IGF
Description: (§1) Biosensor and transducer: A 96-well impendence E-Plate (ACEA, San Diego, CA) was placed onto an xCELLigence RTCA MP Station impendence biosensor (ACEA, San Diego, CA). The biosensor measured simultaneously the impedance of every well. The change in impedance for a particular well is proportional to the number of cells and type of attachment the cells have with the impedance microplate. Changes in impedance indicate a response to perturbation of these small cell populations. Coatings: The 96-E-Plate were wells were coated with fibronectin and or collagen. Collagen is purchased from Advanced BioMatrix (Carlsbad, CA) and fibronectin from Sigma-Aldrich (St. Louis, MO). Tissue and cell samples: A total of 18 samples of human tumor cells from breast, lung, colon, ovarian, kidney, bladder cancer were studied. For each of these six different cancer types, tumor cell samples from three different patients were tested. Any biomarkers that are used to guide selection of targeted therapy are listed in Table 18 for each patient if they were present. Signaling Pathways activator agent and targeted therapeutic pairs: Eleven different signaling pathways were studied in each human tumor cell sample using […] signaling pathway activator agent and targeted therapeutic pairs. Each of the signaling pathway activator agent and targeted therapeutic pairs affect the same signaling pathway. Each of the signaling pathway activator agents is a well-characterized and specific agonist of its associated signaling pathway and each of the targeted therapeutic agents is a well-characterized and specific antagonist of the same associated signaling pathway. The signaling pathway activator agents and targeted therapeutics used to characterize the activity level of the associated signaling pathway are summarized in Table 16 below:
(§2) Other Reagents: Standard media antibiotics (e.g. penicillin, streptomycin) and other buffers were purchased and used as delivered from ATCC (Manassas, VA, USA) or Life Technologies (Grand Island, NY). Procedure: For each test of a patient cell sample with a pair of signaling pathway activator and targeted therapeutic agents, six wells were seeded with approximately 15,000 cells in 120 uL culture media. Twenty microliters of the targeted therapeutic agent were added to two wells of each patient's cells and 20 microliters of standard media were added to the other four wells for each patient 18 hours in advance of addition of the signaling pathway activator agent. Signaling pathway stimulation was initiated with the addition of 20 ul of the signaling pathway activator agent in the two wells that received a targeted therapeutic agent and in two additional wells for each patient's set of cells without the targeted therapeutic. The impedance recording of attachment and adhesion change was performed at 37° C., 5% C02. Data was recorded on a continuous basis throughout the test, where the data presented is from the initial baseline level of cell attachment compared to the subsequent effects following the targeted therapeutic agent and the signaling pathway activator agent additions on the 18 different patient samples. Results:
(§3) Table 17 presents the results, expressed as an output value, for each of the 167 tests performed using the methods described above. For each of the 18 patient samples, up to 11 different signaling pathways were tested. The output value represents the difference between the amount of cell adhesion change resulting from addition of the signaling pathway activator agent and the amount of cell adhesion change resulting from addition of the targeted therapeutic agent.

[1] = test system: c-MET/HGF signaling pathway; assay: CELx multiple pathway test, impedance biosensor cell adhesion, HGF/SGX-523 pair; conditions: activator HGF
Description: as §1
as §2, with “samples.” for “samples. Results:”
as §3, with “For” for “Table 17 presents the results, expressed as an output value, for each of the 167 tests performed using the methods described above. For”

FGFR signaling pathway = assay: CELx multiple pathway test, impedance biosensor cell adhesion, FGF/BGJ398 pair; conditions: activator FGF
Description: as §1, §2, §3

EGFR signaling pathway = assay: CELx multiple pathway test, impedance biosensor cell adhesion, EGF/Neratinib pair; conditions: activator EGF
Description: as §1
as §2, with “samples.” for “samples. Results:”
as §3, with “For” for “Table 17 presents the results, expressed as an output value, for each of the 167 tests performed using the methods described above. For”

HER3 signaling pathway = assay: CELx multiple pathway test, impedance biosensor cell adhesion, NRG1/Neratinib pair; conditions: activator NRG1
Description: as §1, §2, §3

In the case of `C[C@]1(O)C[C@@H](c2nc(-c3ccc4ccc(-c5ccccc5)nc4c3)c3c(N)nccn32)C1` [Linsitinib], the output value (IGFR signaling pathway; C2 breast tumor cells) is reported as 20, the output value (IGFR signaling pathway; C21 breast tumor cells) is reported as 69 and the output value (IGFR signaling pathway; C23 lung tumor cells) is reported as 32. The output value (IGFR signaling pathway; C24 lung tumor cells) was −61, the output value (IGFR signaling pathway; C25 lung tumor cells) was −44 and the output value (IGFR signaling pathway; C34 breast tumor cells) was 34. It also gave an output value (IGFR signaling pathway; C54 ovarian tumor cells) of −8, an output value (IGFR signaling pathway; C62 colorectal tumor cells) of 6 and an output value (IGFR signaling pathway; C69 ovarian tumor cells) of −111. For the same compound, the output value (IGFR signaling pathway; C71 colorectal tumor cells) was −2, the output value (IGFR signaling pathway; C72 colorectal tumor cells) was −22 and the output value (IGFR signaling pathway; C77 ovarian tumor cells) was 56. For the same compound, the output value (IGFR signaling pathway; C81 bladder tumor cells) was 351, the output value (IGFR signaling pathway; C82 bladder tumor cells) was 21 and the output value (IGFR signaling pathway; C87 bladder tumor cells) was 210. The output value (IGFR signaling pathway; C88 kidney tumor cells) was 143, the output value (IGFR signaling pathway; C90 kidney tumor cells) was −607 and the output value (IGFR signaling pathway; C92 kidney tumor cells) was 73.

Work on `Cn1cc(-c2ccc3nnc(Sc4ccc5ncccc5c4)n3n2)cn1` [SGX-523] yielded an output value ([1]; C2 breast tumor cells) of 0, an output value ([1]; C21 breast tumor cells) of 222 and an output value ([1]; C23 lung tumor cells) of 469. For the same compound, the output value ([1]; C24 lung tumor cells) was 78, the output value ([1]; C25 lung tumor cells) was 132 and the output value ([1]; C34 breast tumor cells) was 6. It also gave an output value ([1]; C54 ovarian tumor cells) of 123, an output value ([1]; C62 colorectal tumor cells) of −6 and an output value ([1]; C69 ovarian tumor cells) of −27. The output value ([1]; C71 colorectal tumor cells) was 53, the output value ([1]; C72 colorectal tumor cells) was −110 and the output value ([1]; C77 ovarian tumor cells) was 227. For the same compound, the output value ([1]; C81 bladder tumor cells) was 419, the output value ([1]; C82 bladder tumor cells) was 41 and the output value ([1]; C87 bladder tumor cells) was 28. For the same compound, the output value ([1]; C88 kidney tumor cells) was −13, the output value ([1]; C90 kidney tumor cells) was 368 and the output value ([1]; C92 kidney tumor cells) was 154.

In the case of `CCN1CCN(c2ccc(Nc3cc(N(C)C(=O)Nc4c(Cl)c(OC)cc(OC)c4Cl)ncn3)cc2)CC1` [BGJ398], the output value (FGFR signaling pathway; C2 breast tumor cells) is reported as 14, the output value (FGFR signaling pathway; C21 breast tumor cells) is reported as 15 and the output value (FGFR signaling pathway; C23 lung tumor cells) is reported as 1. For the same compound, the output value (FGFR signaling pathway; C24 lung tumor cells) was −6, the output value (FGFR signaling pathway; C25 lung tumor cells) was 14 and the output value (FGFR signaling pathway; C34 breast tumor cells) was 33. For the same compound, the output value (FGFR signaling pathway; C54 ovarian tumor cells) was 65, the output value (FGFR signaling pathway; C62 colorectal tumor cells) was 4 and the output value (FGFR signaling pathway; C69 ovarian tumor cells) was −19. For the same compound, the output value (FGFR signaling pathway; C71 colorectal tumor cells) was 43, the output value (FGFR signaling pathway; C72 colorectal tumor cells) was −20 and the output value (FGFR signaling pathway; C77 ovarian tumor cells) was 12. It also gave an output value (FGFR signaling pathway; C81 bladder tumor cells) of 75, an output value (FGFR signaling pathway; C82 bladder tumor cells) of −94 and an output value (FGFR signaling pathway; C87 bladder tumor cells) of 8. It also gave an output value (FGFR signaling pathway; C88 kidney tumor cells) of 251, an output value (FGFR signaling pathway; C90 kidney tumor cells) of −47 and an output value (FGFR signaling pathway; C92 kidney tumor cells) of 6.

With `CCOc1cc2ncc(C#N)c(Nc3ccc(OCc4ccccn4)c(Cl)c3)c2cc1NC(=O)/C=C/CN(C)C` [Neratinib] the output value (EGFR signaling pathway; C2 breast tumor cells) was −19, the output value (EGFR signaling pathway; C21 breast tumor cells) was 503 and the output value (EGFR signaling pathway; C23 lung tumor cells) was 298. It also gave an output value (EGFR signaling pathway; C24 lung tumor cells) of 245, an output value (EGFR signaling pathway; C25 lung tumor cells) of 209 and an output value (EGFR signaling pathway; C34 breast tumor cells) of 247. It also gave an output value (EGFR signaling pathway; C54 ovarian tumor cells) of 654, an output value (EGFR signaling pathway; C62 colorectal tumor cells) of 28 and an output value (EGFR signaling pathway; C69 ovarian tumor cells) of 614. The output value (EGFR signaling pathway; C71 colorectal tumor cells) was 179, the output value (EGFR signaling pathway; C72 colorectal tumor cells) was 5 and the output value (EGFR signaling pathway; C77 ovarian tumor cells) was −78. It also gave an output value (EGFR signaling pathway; C81 bladder tumor cells) of 344, an output value (EGFR signaling pathway; C82 bladder tumor cells) of 345 and an output value (EGFR signaling pathway; C87 bladder tumor cells) of 334. The output value (EGFR signaling pathway; C88 kidney tumor cells) was −67, the output value (EGFR signaling pathway; C90 kidney tumor cells) was 150 and the output value (EGFR signaling pathway; C92 kidney tumor cells) was 290. The output value (HER3 signaling pathway; C2 breast tumor cells) was −1, the output value (HER3 signaling pathway; C21 breast tumor cells) was 234 and the output value (HER3 signaling pathway; C23 lung tumor cells) was 373. It also gave an output value (HER3 signaling pathway; C24 lung tumor cells) of 194, an output value (HER3 signaling pathway; C25 lung tumor cells) of 116 and an output value (HER3 signaling pathway; C34 breast tumor cells) of 4. For the same compound, the output value (HER3 signaling pathway; C54 ovarian tumor cells) was 244, the output value (HER3 signaling pathway; C62 colorectal tumor cells) was 2 and the output value (HER3 signaling pathway; C69 ovarian tumor cells) was 178. For the same compound, the output value (HER3 signaling pathway; C71 colorectal tumor cells) was 28, the output value (HER3 signaling pathway; C72 colorectal tumor cells) was 5 and the output value (HER3 signaling pathway; C77 ovarian tumor cells) was 128. The output value (HER3 signaling pathway; C81 bladder tumor cells) was 13, the output value (HER3 signaling pathway; C82 bladder tumor cells) was 31 and the output value (HER3 signaling pathway; C87 bladder tumor cells) was 10. It also gave an output value (HER3 signaling pathway; C88 kidney tumor cells) of 5, an output value (HER3 signaling pathway; C90 kidney tumor cells) of −32 and an output value (HER3 signaling pathway; C92 kidney tumor cells) of 36.
